Results as given in patent publication US11279676B2 (CHIA TAI TIANQING PHARMACEUTICAL GROUP CO., LTD., priority 2018, dated 2022).
Like-named read-outs stand apart in the source and are kept apart here. One block for each compound: values may come before it.

Experiments:
[1] = Hygroscopicity test (Chinese Pharmacopoeia 2015, General Chapter 9103); type: physicochemical; details: Guidelines for Drug Moisture Test, Chinese Pharmacopoeia 2015 Chapter 9103
Experimental: Took the crystalline form A, crystalline form B, crystalline form D and crystalline form E of the compound of formula I to conduct test according to the “Guidelines for Drug Moisture Test” of the Chinese Pharmacopoeia 2015 Edition Fourth General Chapter 9103, and respectively, the weight gain of samples due to hygroscopicity was calculated.

[2] = Pharmacokinetic test in rats (relative bioavailability after gavage); type: in vivo; details: intragastric 20 mg/kg in gavage capsules; for Relative F: relative to crystalline form A (100)
Experimental: The relative bioavailability of the compound of formula I in vivo was evaluated, after SD rats were gavaged with crystalline form A, crystalline form B, crystalline form D and crystalline form E of the compound of formula I.
Test samples: crystalline form A, crystalline form B, crystalline form D and crystalline form E of the compound of formula I filled in No. 9 gavage capsules separately
SD rats, weighing 180-200 g, after adaptation of 3-5 days, were randomly divided into 4 groups, with 4 rats in each group, and were respectively administered of crystalline form A, crystalline form B, crystalline form D and crystalline form E of the compound of formula I by intragastric administration at a dose of 20 mg/kg. The rats were fasted for 12 hours before administration and given food 4 hours after administration. Drinking water was free before and after the experiment and during the experiment.
After administration, the collection time points were 0.167 h (10 min), 0.5 h, 1 h, 2 h, 4 h, 6 h, 8 h, 10 h, and 24 h. About 0.3 mL of blood was collected from the orbital venous plexus and placed in a centrifuge tube containing EDTA-K2. Stored at 4° C. Centrifuged at a condition of 4° C., 4000 rpm, 10 min within 1 h, and stored at −20° C. to be tested.
Pipetted 50 μL of plasma sample to be tested, added 300 μL of acetonitrile solution containing internal standard, shook and mixed for 5 min, centrifuged at 13000 rpm for 10 min, took 30 μL of supernatant, added 150 μL of 50% acetonitrile aqueous solution, and pipetted 1 μL for LC/MS/MS analysis and determination.
Making use of liquid chromatography-tandem mass spectrometry (LC-MS/MS), with diazepam as an internal standard (IS), protein precipitation method was used to extract the analyte and internal standard from the plasma, and reverse phase chromatography column was adopted to separate compounds and internal standard. The analyte was quantified by electrospray ionization (ESI) mode of a tandem quadrupole mass spectrometer.

[3] = SD, rat, plasma, po, 20 mg/kg, mean of 4 rats
[4] = SD rats, plasma, mean of 4 rats, listed as Crystalline Form B of the Compound of Formula I
[5] = SD rats, plasma, mean of 4 rats, listed as Crystalline Form D of the Compound of Formula I
[6] = SD rats, plasma, mean of 4 rats, listed as Crystalline Form E of the Compound of Formula I

Weight Gain due to Hygroscopicity [1]: Less than 0.2%
Relative F ([2]; SD rats, listed as Crystalline Form A of the Compound of Formula I): 100%
AUC(0-inf) [2, 3]: 4.96 µg·h/mL
AUC(0-t) [2, 3]: 4.7 µg·h/mL
half-life [2, 3]: 4.93 h
MRT last ([2]; SD, rat, plasma, po, 20 mg/kg, plasma, mean of 4 rats, read-out: MRT(0-t)): 8.51 h
Tmax ([2]; SD, rat, plasma, po, 20 mg/kg, plasma, mean of 4 rats, read-out: Tmax): 6 h
SMILES: COc1cc2c(Oc3ccc(NC(=O)C4(C(=O)Nc5ccc(F)cc5)CC4)cc3F)ccnc2cc1OCC1(NC2CCCC2)CC1 [Example 1]

MRT(0-t) [2, 4]: 6.72 h
Tmax [2, 4]: 4.00 h
t1/2 [2, 4]: 5.30 h
Relative F ([2]; SD rats, listed as Crystalline Form B of the Compound of Formula I): 134%
SMILES: COc1cc2c(Oc3ccc(NC(=O)C4(C(=O)Nc5ccc(F)cc5)CC4)cc3F)ccnc2cc1OCC1(NC2CCCC2)CC1 [Example 2]

MRT(0-t) [2, 5]: 8.73 h
Tmax [2, 5]: 6.00 h
t1/2 [2, 5]: 5.20 h
Relative F ([2]; SD rats, listed as Crystalline Form D of the Compound of Formula I): 72%
SMILES: COc1cc2c(Oc3ccc(NC(=O)C4(C(=O)Nc5ccc(F)cc5)CC4)cc3F)ccnc2cc1OCC1(NC2CCCC2)CC1 [Example 4]

MRT(0-t) [2, 6]: 7.30 h
Tmax [2, 6]: 4.50 h
t1/2 [2, 6]: 4.61 h
Relative F ([2]; SD rats, listed as Crystalline Form E of the Compound of Formula I): 84%
SMILES: COc1cc2c(Oc3ccc(NC(=O)C4(C(=O)Nc5ccc(F)cc5)CC4)cc3F)ccnc2cc1OCC1(NC2CCCC2)CC1 [Example 5]
